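Five concentrations, 48 hours, 96-well plates. GI50 is the concentration that inhibits growth by half.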 Calls of active or inactive are those of the source. Cut-off read from the data, not from the text of the source: active = GI50 up to about 1.1 µM and inactive = higher.
Columns and labels:
Assay in all cases: NCI tumour cell line growth inhibition, 48 h
[1] = test system: 786-0
[2] = test system: A498
[3] = test system: A549
[4] = test system: CCRF-CEM
[5] = test system: HT-29
[6] = test system: KM12
[7] = test system: LOX IMVI
[8] = test system: MDA-MB-231
[9] = test system: MDA-MB-435
[10] = test system: OVCAR-5
[11] = test system: RPMI-8226
[12] = test system: SF-539
[13] = test system: SK-MEL-5
[14] = test system: SK-OV-3
[15] = test system: SN12C
[16] = test system: T47D
[17] = test system: U-251
[18] = test system: UACC-257
[19] = test system: SK-MEL-28
[20] = test system: DU-145

Measured: GI50

Cn1c(N=P(c2ccccc2)(c2ccccc2)c2ccccc2)c([N+](=O)[O-])c(=O)n(C)c1=O
inactive: [1] 39 µM | [2] 59.7 µM | [3] 40.6 µM | [4] 20.2 µM | [5] 44.5 µM | [6] 25.6 µM | [7] 35.9 µM | [8] 32.2 µM | [9] 35.2 µM | [10] > 100 µM | [11] 34 µM | [12] > 100 µM | [13] 47.4 µM | [14] > 100 µM | [15] 56.2 µM | [16] 33.7 µM | [17] 66.2 µM | [18] 73.1 µM

O=[N+]([O-])c1cccc(/C=N/C23CC4CC(CC(C4)C2)C3)c1
inactive: [1] > 100 µM | [2] > 100 µM | [3] > 100 µM | [4] 25.1 µM | [5] > 100 µM | [6] > 100 µM | [7] 63.7 µM | [10] > 100 µM | [11] > 10 µM | [12] > 100 µM | [19] > 100 µM | [13] 70.8 µM | [14] > 100 µM | [15] > 100 µM | [17] > 100 µM | [18] > 100 µM

Cc1nnc(N/N=C2/C(=O)Nc3ccccc32)nc1O
inactive: [1] > 100 µM | [2] > 100 µM | [3] > 100 µM | [20] > 100 µM | [5] > 100 µM | [6] > 100 µM | [7] > 100 µM | [8] > 100 µM | [9] > 100 µM | [10] > 100 µM | [11] > 100 µM | [12] > 100 µM | [19] > 100 µM | [14] > 100 µM | [15] > 100 µM | [17] > 100 µM | [18] > 100 µM

CSc1nc(C)cc(N(C)c2ccccc2)n1
inactive: [1] 38.5 µM | [2] 50.1 µM | [3] 29 µM | [4] 38 µM | [20] 58.6 µM | [5] 15.1 µM | [6] 1.73 µM | [7] 21.1 µM | [8] 34.8 µM | [9] 22.5 µM | [10] > 100 µM | [11] > 100 µM | [12] 28 µM | [19] 46.8 µM | [13] 25.6 µM | [14] 37.6 µM | [15] 41.8 µM | [17] 31.4 µM | [18] 31.6 µM

CC(C)c1ccccc1NC(=O)CCc1n[nH]c(=S)o1
inactive: [1] > 100 µM | [2] > 100 µM | [3] 99.8 µM | [4] > 64.1 µM | [5] > 90.4 µM | [6] > 100 µM | [7] > 100 µM | [10] > 100 µM | [11] > 48.9 µM | [12] 72.3 µM | [19] > 100 µM | [13] > 100 µM | [14] > 100 µM | [15] > 100 µM | [17] > 75.9 µM | [18] > 100 µM

COc1ccccc1C(=O)c1c(N2CCCCC2)c(=O)c1=O
inactive: [1] > 100 µM | [2] > 100 µM | [3] > 100 µM | [4] > 100 µM | [20] > 100 µM | [5] > 100 µM | [6] 78.7 µM | [7] > 100 µM | [8] > 100 µM | [9] > 100 µM | [10] > 100 µM | [11] 92.7 µM | [12] > 100 µM | [19] > 100 µM | [13] > 100 µM | [14] > 100 µM | [15] > 100 µM | [17] > 100 µM | [18] > 100 µM

O=S(=O)(N/N=C/c1ccc(Cl)cc1Cl)c1ccccc1
inactive: [1] > 100 µM | [2] > 100 µM | [3] > 100 µM | [4] 38.5 µM | [5] 80.2 µM | [6] 51.2 µM | [7] 97.9 µM | [10] > 100 µM | [11] 84.7 µM | [12] 77.1 µM | [19] 67.8 µM | [13] > 100 µM | [14] 91.8 µM | [15] 27.4 µM | [17] 91.2 µM | [18] > 100 µM

CCCNCCCCC(NC(C)=O)C(=O)NCc1ccccc1 (centres undefined)
inactive: [1] > 100 µM | [2] > 100 µM | [3] > 100 µM | [4] > 100 µM | [5] > 100 µM | [6] > 100 µM | [7] > 100 µM | [10] > 100 µM | [11] > 100 µM | [12] > 100 µM | [19] > 100 µM | [13] > 100 µM | [14] > 100 µM | [15] > 100 µM | [17] > 100 µM | [18] > 100 µM

Cc1nc2ccccc2[s+]c1-c1cnc(NC#N)nc1C(=O)Nc1cccc(Cl)c1
inactive: [1] > 100 µM | [2] > 100 µM | [3] > 100 µM | [4] > 100 µM | [5] > 100 µM | [6] > 100 µM | [7] > 100 µM | [10] > 100 µM | [11] > 100 µM | [12] > 100 µM | [19] > 100 µM | [13] > 100 µM | [14] > 100 µM | [15] > 100 µM | [17] > 100 µM | [18] > 100 µM

C=C(C(=C)P(=S)(C(C)C)C(C)C)P(=S)(C(C)C)C(C)C
inactive: [1] > 100 µM | [2] > 100 µM | [3] > 100 µM | [4] > 100 µM | [5] > 100 µM | [6] > 100 µM | [7] > 100 µM | [10] > 100 µM | [11] > 100 µM | [12] > 100 µM | [19] > 100 µM | [13] > 100 µM | [14] > 100 µM | [15] > 100 µM | [17] > 100 µM | [18] > 100 µM

CN(C)CCC(/C=C/c1ccccc1)=N\Nc1ccc(Cl)c(Cl)c1
inactive: [1] 2.69 µM | [2] 4.63 µM | [3] 3.13 µM | [4] 2.91 µM | [5] 2.24 µM | [6] 2.05 µM | [7] 1.99 µM | [10] 3.33 µM | [11] 3.44 µM | [12] 2.2 µM | [19] 9.33 µM | [13] 4.49 µM | [14] 4.53 µM | [15] 3.52 µM | [17] 4.59 µM | [18] 3.33 µM

CCOP(=O)(OCC)/C(C#N)=C/c1[nH]cnc1C
inactive: [1] > 100 µM | [2] > 100 µM | [3] > 100 µM | [4] > 100 µM | [20] > 100 µM | [5] > 100 µM | [6] > 100 µM | [7] > 100 µM | [8] > 100 µM | [9] > 100 µM | [10] > 100 µM | [11] > 100 µM | [12] 49.5 µM | [19] > 100 µM | [13] > 100 µM | [14] > 100 µM | [15] > 100 µM | [17] > 100 µM | [18] > 100 µM
